From US11759442B2, “Use of short chain fatty acids for the treatment and prevention of diseases and disorders” (Temple University-Of The Commonwealth System of Higher …, priority 2017, dated 2023)

Tests used:
GPR-109a receptor = GPR-109a receptor (Homo sapiens, UniProt Q8TDS4); settings: read-out: EC50 of GPR-109a receptor activation; cited from earlier work
IL-6 = settings: cited from earlier work
[1] = test system: ileum inflammatory cytokines; settings: neonatal piglets, oral ~10 ml of 150 mmol/L; cited from earlier work

Sequence of GPR-109a receptor (Q8TDS4 whole entry): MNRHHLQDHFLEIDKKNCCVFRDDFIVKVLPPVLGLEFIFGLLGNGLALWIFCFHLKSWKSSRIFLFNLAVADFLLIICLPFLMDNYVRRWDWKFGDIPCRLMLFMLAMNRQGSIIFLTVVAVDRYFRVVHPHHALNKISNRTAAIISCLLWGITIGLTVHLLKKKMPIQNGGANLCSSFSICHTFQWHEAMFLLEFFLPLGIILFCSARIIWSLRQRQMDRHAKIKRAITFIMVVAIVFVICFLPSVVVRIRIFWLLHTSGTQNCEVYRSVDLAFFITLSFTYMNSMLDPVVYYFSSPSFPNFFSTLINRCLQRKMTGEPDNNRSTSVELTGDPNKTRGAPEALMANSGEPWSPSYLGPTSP

For `CCCC(=O)O` [butyrate], the “re-emergence of psoriasis on left elbow after ceasing the regimen” value (psoriasis skin lesions; FIG. 2 patient, one 600 mg pill 3 times daily for 16 days, then stopped) was 20 days, the “time until psoriasis came back after stopping the regimen” value (psoriasis skin lesions; FIG. 5 fourth patient) was 20 to 25 days and the “side effects during treatment” value (psoriasis skin lesions; FIG. 5 fourth patient, treatment for long period of time) was “no side effects were noted”. The EC50 (GPR-109a receptor) was roughly 1500 µM.

In the case of `CCC(=O)O` [propionate], the “effect on IL-6” value (IL-6) is given as “inhibit IL-6”.

For `CCCC(=O)[O-].[Na+]` [sodium butyrate], the “effect on ileum inflammatory cytokines” value [1] is listed as “modulated the ileum inflammatory cytokines”.
